What was measured:
Assay type in all cases: in vivo
souris [1] = experiment: Interaction with barbital (sleep)
Experimental: (§1) On a résumé ci-après les résultats des essais pharmacologiques qui ont été entrepris avec les produits selon la présente addition. Dans ces essais, les produits de formule I à étudier ont été administrés par voie intrapéritonéale, en suspension dans une solution aqueuse de gomme arabique, sous un volume de 20 ml/kg chez la souris mâle et sous un volume de 5 ml/kg chez le rat mâle.
Une demi-heure après l'administration de CRL 40933, des lots de 10 souris reçoivent une injection intrapéritonéale de 220 mg/kg de barbital.

souris [2] = experiment: Interaction with apomorphine, mouse
Experimental: as §1
Des lots de 6 souris par dose reçoivent le CRL 40933 0,5 h avant l'injection sous-cutanée d'apomorphine administrée à la dose de 1 ou 16 mg/kg.

rats mâles = experiment: Global behaviour and reactivities, rat
Experimental: as §1
(§2) Pour apprécier le comportement global et les réactivités, des lots de six animaux (souris mâles ou rats mâles) ont été observés avant administration de chaque produit, puis 15 min, 30 min, 1 h, 2 h, 3 h et 24 h après administration de chaque produit. Les résultats sont consignés dans le tableau III ci-après, […]

souris mâle [3] = experiment: Toxicity, DL-0; details: i.p.
Experimental: as §1
La toxicité a été étudiée chez la souris mâle. Les résultats relatifs à la DL-0 (dose minimale non mortelle) sont donnés dans le tableau II ci-après.

souris [4] = experiment: Intergroup aggressiveness; details: dose not stated
Experimental: as §1
Après avoir séjourné pendant 3 semaines dans chacune des moitiés d'une cage séparées par une cloison opaque, des groupes de 3 souris reçoivent le CRL 40933. 30 min plus tard, les deux groupes d'une même cage sont réunis par retrait de la cloison et on note le nombre de combats qui surviennent en 10 min.

souris [5] = experiment: Motility reduced by habituation to the enclosure
Experimental: as §1
Après 18 h de séjour dans les actimètres, les souris (6 par dose, 12 témoins) reçoivent le CRL 40933. Elles sont aussitôt replacées dans leurs enceintes respectives et, 30 min plus tard, on enregistre leur motilité pendant 30 min.

SNC = experiment: Essential activity on the CNS (Tableau I and conclusions of the neuropsychopharmacological study); details: in vivo
Description: Dans le tableau I ci-après, on a consigné un certain nombre de composés selon la formule I de façon nullement limitative, en mentionnant l'activité essentielle sur le SNC.
Les composés de formule I agissent tous sur le SNC. Les produits des exemples 1-3 et 7-8 sont des agents stimulants, en revanche les produits des exemples 4-6 sont des agents sédatifs.

souris [6] = experiment: Traction test; details: 0,5 h after administration, dose not stated
Experimental: as §1
(§3) Les essais sont effectués sur des lots de 10 souris (par dose) 0,5 h après l'administration du CRL 40933.

souris [7] = experiment: Four plates test
Experimental: as §1, §3

souris mâles = experiment: Global behaviour and reactivities, mouse; details: souris
Experimental: as §1, §2

rats = experiment: Interaction with amphetamine (stereotypies); details: rat; 8 mg/kg à 128 mg/kg i.p.
Experimental: as §1
L'amphétamine (2 mg/kg)est injectée par voie intrapéritonéale à des lots de 6 rats, 30 min après l'administration de CRL 40933.

souris [8] = experiment: Motility reduced by hypoxic aggression (acute hypobaric anoxia)
Experimental: as §1
Une demi-heure après avoir reçu le CRL 40933, les souris (10 par dose, 20 témoins) sont soumises à une anoxie hypobare aiguë [dépression de 600 mm Hg (soit environ 8 x 10^4 pascals) en 90 s, puis détente de 45 s], puis elles sont placées en actimètre où leur motilité est enregistrée pendant 10 min.

rat = experiment: Interaction with apomorphine, rat; details: apomorphine 0,5 mg/kg s.c., dose not stated
Experimental: as §1
Le CRL 40933 est administré à des lots de 6 rats 0,5 h avant l'injection sous-cutanée de 0,5 mg/kg d'apomorphine.

souris [9] = experiment: Behavioural despair (forced immersion); details: souris
Experimental: as §1
Une demi-heure après avoir reçu le CRL 40933, des lots de 10 souris par dose sont placés dans un espace restreint rempli d'eau sur une hauteur de 6 cm; on note la durée d'immobilité entre la 2e et la 6e minute suivant l'immersion.

souris [10] = experiment: Spontaneous motility (actimeter)
Experimental: as §1
Une demi-heure, après avoir reçu le CRL 40933, les souris (6 par dose, 12 témoins) sont placées en actimètre où leur motilité est enregistrée pendant 30 min.

homme = experiment: Clinical trials; details: for résultats en tant que médicaments de l'éveil: notamment vieillard, gélules ou comprimés de 100 à 200 mg, 1 à 3 par jour
Description: Les études cliniques ont porté sur les troubles de la vigilance, de l'éveil et des états confusionnels, d'une part, et sur les troubles de l'affectivité, du contact et des dépressions, d'autre part.

souris mâle [11] = experiment: Pentobarbital-induced sleep duration
Description: Les composés selon l'invention se distinguent du benzhydrylsulfinylacétamide (CRL 40476) précité par une différence d'action vis-à-vis du sommeil barbiturique. […]. Cette différence d'action qui est intéressante sur le plan thérapeutique est illustrée par le tableau IV

souris [12] = experiment: Interaction with reserpine
Experimental: as §1
Quatre heures après l'injection intrapéritonéale de 2,5 mg/kg de réserpine, des lots de 6 souris reçoivent le CRL 40933.

souris [13] = experiment: Asphyxic anoxia (gallamine triethiodide); details: 64 mg/kg et 256 mg/kg i.p.
Experimental: as §1
Des lots de 10 souris par dose reçoivent le CRL 40933 30 min avant l'administration intrapéritonéale de 32 mg/kg de triiodoéthylate de gallamine.

souris [14] = experiment: Electroshock
Experimental: as §1, §3

souris [15] = experiment: Interaction with oxotremorine
Experimental: as §1
Le CRL 40933 est administré à des lots de 6 souris 0,5 h avant l'injection intrapéritonéale de 0,5 mg/kg d'oxotrémorine.

[16] = dose 256 mg/kg i.p., 0,5 h before pentobarbital
[17] = 16 mg/kg, 64 mg/kg et 256 mg/kg i.p.

CC(C)NC(=O)C[S+]([O-])C(c1ccccc1)c1ccccc1 (stereo not shown) [Exemple 2]
durée du sommeil barbiturique (souris [1]; 256 mg/kg i.p.): diminue nettement | comportement de verticalisation et stéréotypies (apomorphine) (souris [2]; dose not stated): laisse inchangés | hypothermie produite par l'apomorphine (souris [2]; dose not stated): laisse inchangés | Observations (comportement global et réactivités) (rats mâles; 128 mg/kg i.p.): mydriase pendant 3 h | DL-O (souris mâle [3]): supérieure à 512 mg/kg | agressivité intergroupes (nombre de combats) (souris [4]): diminue très modérément | activité chez la souris habituée à son enceinte (souris [5]; 4 mg/kg, 64 mg/kg et 256 mg/kg i.p.): semble provoquer une reprise de l'activité | reprise de l'activité chez la souris habituée à son enceinte (souris [5]; intermediate dose 16 mg/kg i.p.): n'est pas observé | Activité sur le SNC (SNC): stimulant | conclusion of the neuropsychopharmacological study: main type of CNS effect (SNC): agent psychotrope | déficit moteur (traction) (souris [6]): ne provoque pas de déficit moteur majeur | nombre de passages punis (souris [7]; 0,5 h after administration, dose not stated): n'entraîne pas d'augmentation | hypothermie modérée (souris mâles; 256 mg/kg i.p., pendant 0,5 h): -1 °C | Observations (comportement global et réactivités) (souris mâles; 512 mg/kg i.p.): respiration déprimée, dyspnée, sédation, diminution de la réactivité au toucher, puis excitation au bout de 3 h | mortalité (souris mâles; 512 mg/kg i.p.): pas de mortalité | Observations (comportement global et réactivités) (souris mâles; 128 mg/kg i.p.): sédation, puis excitation 3 h après admi-nistration | Observations (comportement global et réactivités) (souris mâles; 256 mg/kg i.p.): sédation pendant 0,5 h avec diminution de la fréquence respiratoire - hyporéactivité au toucher pendant 2 h - hypothermie modérée (-1°C) pendant 0,5 h - excitation 3 h après administration | stéréotypies amphétaminiques (rats): semble potentialiser faiblement | récupération motrice (motilité réduite par agression hypoxique) (souris [8]; 64 mg/kg et surtout 256 mg/kg i.p.): amélioration nette | stéréotypies induites par l'apomorphine (rat): ne sont pas modifiées | durée d'immobilité (souris [9]; dès la dose de 16 mg/kg i.p.): diminue nettement | motilité spontanée (souris [10]; 256 mg/kg i.p.): hypermotilité nette | action contre l'énurésie (homme): agissent efficacement | résultats en tant que médicaments de l'éveil (homme): excellents résultats | Action sur la durée du sommeil induit par le pentobarbital (50 mg/kg i.p.) effet (souris mâle [11]; [16]): (a) | ptôsis réserpinique (souris [12]; 256 mg/kg i.p.): diminue très modérément | apparition des convulsions anoxiques provoquées par le triiodoéthylate de gallamine (souris [13]): retarde modérément | effets convulsivants de l'électrochoc (souris [14]; 64 mg/kg à 256 mg/kg i.p.): s'oppose | signes de stimulation cholinergique périphérique, notamment la défécation (souris [15]; 64 mg/kg à 256 mg/kg i.p.): semble entraîner une diminution | intensité des tremblements provoqués par l'oxotrémorine (souris [15]; 256 mg/kg i.p.): semble diminuer modérément | action hypothermisante de l'oxotrémorine (souris [15]; dose not stated): ne modifie pratiquement pas

NC(=O)C[S+]([O-])C(c1ccccc1)c1ccc(F)cc1 (stereo not shown) [Exemple 9]
durée du sommeil barbiturique (souris [1]; [17]): diminue nettement | action hypothermisante de l'apomorphine (souris [2]; 256 mg/kg i.p.): s'oppose | comportement de verticalisation et stéréotypies (apomorphine) (souris [2]; 256 mg/kg i.p.): sans modifier | Observations (comportement global et réactivités) (rats mâles; 8 mg/kg i.p.): hyporéactivité fugace (0,5 h) et diminution du tonus musculaire | Observations (comportement global et réactivités) (rats mâles; 32 mg/kg i.p.): diminution fugace (0,5 h) de la réactivité au toucher et du tonus musculaire | Observations (comportement global et réactivités) (rats mâles; 128 mg/kg i.p.): excitation pendant 2 h avec hyper-réactivité au toucher pendant 0,5 h | DL-O (souris mâle [3]): supérieure à 512 mg/kg | activité motrice chez la souris habituée à son enceinte (souris [5]; 64 mg/kg et 256 mg/kg i.p.): reprise de l'activité motrice | Activité sur le SNC (SNC): stimulant | conclusion of the neuropsychopharmacological study: main type of CNS effect (SNC): effet stimulant du SNC qui est essentiel | conclusion: effets de type antidépresseur (SNC): à forte dose seulement un effet antidépresseur du SNC | déficit moteur (traction) (souris [6]): ne provoque pas de déficit moteur | passages punis (souris [7]; 64 et 256 mg/kg i.p.): nette augmentation | Observations (comportement global et réactivités) (souris mâles; 16 mg/kg i.p.): excitation pendant 1 h pour 33 % des animaux | excitation (souris mâles; 16 mg/kg i.p., pendant 1 h): 33 % des animaux | Observations (comportement global et réactivités) (souris mâles; 64 mg/kg i.p.): excitation apparaissant en 30 minutes, maximale après 2 h et durant 24 h - apparition tardive (2-3 h)- 4 mouvements stéréotypés de faible intensité - réactivité au toucher pendant 2-3 h | Observations (comportement global et réactivités) (souris mâles; 256 mg/kg i.p.): excitation apparaissant en 30 minutes et maximale 2 à 3 h après administration - présence de stétréotypies nettes mais tardives - réactivité au toucher pendant 3 h | durée d'immobilité (souris [9]; [17]): diminue fortement | durée de l'hypermotilité (souris [10]): ≥ 4 h | time of maximal hypermotility after administration (souris [10]): 0,5 h | motilité spontanée (souris [10]; dès la dose de 16 mg/kg i.p.): pypermotilité | action contre l'énurésie (homme): agissent efficacement | résultats en tant que médicaments de l'éveil (homme): excellents résultats | Action sur la durée du sommeil induit par le pentobarbital (50 mg/kg i.p.) effet (souris mâle [11]; dose 16 mg/kg i.p., 0,5 h before pentobarbital): (a) | hypothermie réserpinique (souris [12]; 256 mg/kg i.p., 1,5 h): s'oppose tardivement | ptosis réserpinique (souris [12]; 256 mg/kg i.p., 24 h): s'oppose tardivement | effets convulsivants de l'électrochoc (souris [14]; 256 mg/kg i.p.): s'oppose partiellement | signes de stimulation cholinergique périphérique dus à l'oxotrémorine (souris [15]; dose not stated): ne modifie pas | tremblements induits par l'oxotrémorine (souris [15]; dose not stated): n'est pratiquement pas modifiée | baisse de température provoquée par l'oxotrémorine (souris [15]; highest dose used): s'oppose

CC(C)(C)NC(=O)C[S+]([O-])C(c1ccccc1)c1ccccc1 (stereo not shown) [Exemple 3]
Activité sur le SNC (SNC): stimulant

CCNC(=O)C[S+]([O-])C(c1ccccc1)c1ccccc1 (stereo not shown) [Exemple 4]
sommeil barbiturique (souris [1]; dose not stated): effet antagoniste | DL-O (souris mâle [3]): supérieure à 512 mg/kg | activité chez la souris habituée à son enceinte (souris [5]; doses élevées): reprise modérée de l'activité | Activité sur le SNC (SNC): sédatif | ensemble d'effets de type sédatif (souris mâles; doses faibles et moyennes): sédation, hypo- réactivité, hypoagressivité, hypothermie | récupération motrice après hypoxie (souris [8]; doses élevées): amélioration sensible | hypomotilité de "désespoir" (souris [9]; dose not stated): diminution | activité motrice (souris [10]; doses faibles et moyennes): absence de toute diminution d'activité motrice | motilité spontanée (souris [10]; doses élevées): hypermotilité discrète | Action sur la durée du sommeil induit par le pentobarbital (50 mg/kg i.p.) effet (souris mâle [11]; dose 64 mg/kg i.p., 0,5 h before pentobarbital): (a) | Action sur la durée du sommeil induit par le pentobarbital (50 mg/kg i.p.) effet (souris mâle [11]; dose 128 mg/kg i.p., 0,5 h before pentobarbital): (a) | Action sur la durée du sommeil induit par le pentobarbital (50 mg/kg i.p.) effet (souris mâle [11]; [16]): (a) | effet convulsivant de l'électrochoc (souris [14]; doses faibles et moyennes): antagonisme

O=C(C[S+]([O-])C(c1ccccc1)c1ccccc1)N1CCOCC1 (stereo not shown) [Exemple 6]
Activité sur le SNC (SNC): sédatif

Source: patent EP0097071A1, “Benzhydryl sulfinylacetamide derivatives and their therapeutical use” (LABORATOIRE L. LAFON Société anonyme dite:, priority 1982, dated 1983)
